Test results from ChEMBL document CHEMBL1201862, “PubChem BioAssay data set” (2004).
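Values below derive from 48-hour exposures of cells grown in 96-well plates, with endpoints linearly interpolated between the two concentrations bracketing the appropriate inhibition level. GI50: concentration for 50% inhibition of growth.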 Activity calls are given as the source filed them. Rule as the data show it: active = GI50 up to about 1.1 µM and inactive = higher.

Columns and labels:
Experiment in all cases: NCI-60 cell line screen, 48 h
[1] = test system: NCI-H460
[2] = test system: SK-OV-3
[3] = test system: SK-MEL-2
[4] = test system: MOLT-4
[5] = test system: HOP-18
[6] = test system: HCT-15
[7] = test system: 786-0
[8] = test system: TK-10
[9] = test system: A549
[10] = test system: HCC 2998
[11] = test system: OVCAR-4
[12] = test system: UO-31
[13] = test system: SK-MEL-5
[14] = test system: SNB-78
[15] = test system: UACC-62
[16] = test system: K562
[17] = test system: HL-60
[18] = test system: HOP-62
[19] = test system: Malme-3M
[20] = test system: NCI-H226
[21] = test system: ACHN
[22] = test system: A498
[23] = test system: HT-29
[24] = test system: KM12
[25] = test system: OVCAR-3
[26] = test system: DMS-273
[27] = test system: IGROV-1
[28] = test system: RXF 393
[29] = test system: HOP-92
[30] = test system: XF498
[31] = test system: SF-268
[32] = test system: U-251
[33] = test system: LXFL 529
[34] = test system: RPMI-8226
[35] = test system: DMS-114
[36] = test system: KM-20L2
[37] = test system: SW-620
[38] = test system: NCI-H23
[39] = test system: SN12C
[40] = test system: RXF 631
[41] = test system: EKVX
[42] = test system: LOX IMVI
[43] = test system: CAKI-1
[44] = test system: SF-539
[45] = test system: DLD-1
[46] = test system: UACC-257
[47] = test system: HCT-116
[48] = test system: M14
[49] = test system: COLO 205
[50] = test system: SF-295
[51] = test system: SNB-75
[52] = test system: M19-MEL
[53] = test system: OVCAR-8
[54] = test system: SR
[55] = test system: SK-MEL-28
[56] = test system: OVCAR-5
[57] = test system: CCRF-CEM
[58] = test system: SNB-19
[59] = test system: NCI-H522

Measured: GI50

COC(=O)C1=C(c2ccc3c(c2)OCO3)OC(c2ccc3c(c2)OCO3)C1 (stereo not given)
> 100 µM: [6]
inactive: [1] > 100 µM | [2] > 100 µM | [3] > 100 µM | [4] 16.9 µM | [5] 69.7 µM | [7] > 100 µM | [8] > 100 µM | [9] 78.2 µM | [10] > 100 µM | [11] > 100 µM | [12] 38.2 µM | [13] 68.5 µM | [14] > 100 µM | [15] > 100 µM | [16] > 100 µM | [17] > 100 µM | [18] > 100 µM | [19] > 100 µM | [20] > 100 µM | [21] 80.9 µM | [22] > 100 µM | [23] > 100 µM | [24] 65.2 µM | [25] > 100 µM | [26] > 100 µM | [27] > 100 µM | [28] 68.5 µM | [29] > 100 µM | [30] > 100 µM | [31] > 100 µM | [32] 93.8 µM | [33] 38.4 µM | [34] > 100 µM | [35] 30.1 µM | [36] > 100 µM | [37] 67 µM | [38] > 100 µM | [39] > 100 µM | [40] > 100 µM | [41] > 100 µM | [42] 28.3 µM | [43] > 100 µM | [44] > 100 µM | [45] > 100 µM | [46] 69.7 µM | [47] > 100 µM | [48] > 100 µM | [49] 66.1 µM | [50] 71.9 µM | [51] > 100 µM | [52] > 100 µM | [53] > 100 µM | [54] 74.5 µM | [55] > 100 µM | [56] > 100 µM | [57] > 100 µM

C/C(=N\O)c1sc(-n2nc(-c3ccccc3)cc2-c2ccccc2)nc1C
inactive: [1] 15.6 µM | [2] > 10 µM | [58] 12.2 µM | [3] 28.3 µM | [4] 11.1 µM | [5] > 10 µM | [7] 11.2 µM | [8] > 10 µM | [9] 14.2 µM | [10] 13.6 µM | [11] > 10 µM | [12] 10.6 µM | [13] 12 µM | [14] 29.8 µM | [15] 11.6 µM | [16] 12.6 µM | [17] 14 µM | [18] 12 µM | [19] 16.9 µM | [20] 12.3 µM | [21] 11.9 µM | [22] 25.4 µM | [23] 13 µM | [24] 11.7 µM | [25] 16.3 µM | [26] 22.5 µM | [27] 12.2 µM | [59] 12.1 µM | [28] > 10 µM | [29] > 10 µM | [30] > 10 µM | [31] 12.1 µM | [32] 11.7 µM | [33] 11.7 µM | [34] 12.2 µM | [35] 12.4 µM | [36] 11.5 µM | [37] 13.1 µM | [38] 8.15 µM | [39] 6.79 µM | [40] 14.8 µM | [41] 6.35 µM | [42] 12.4 µM | [43] 13.1 µM | [44] 12.2 µM | [45] 11.5 µM | [46] 13.6 µM | [47] 12.6 µM | [48] 13.2 µM | [49] > 10 µM | [50] 14 µM | [51] 14.6 µM | [52] 13.3 µM | [53] 12 µM | [54] 15.3 µM | [55] 12.9 µM | [56] > 10 µM | [57] 12.3 µM
13.9 µM: [6]

COc1c(OC(C)=O)cc2c(OC(C)=O)c1CC(C)CC(OC)C(O)C(C)/C=C(\C)C(OC(N)=O)C(OC)/C=C\C=C(/C)C(=O)N2 (stereo not given)
inactive: [1] > 100 µM | [2] > 100 µM | [58] > 100 µM | [3] > 100 µM | [4] > 27 µM | [5] > 100 µM | [7] > 81.3 µM | [8] > 81.8 µM | [9] > 71.3 µM | [10] 36.5 µM | [11] > 100 µM | [12] > 83.6 µM | [13] > 100 µM | [14] > 100 µM | [15] > 100 µM | [16] > 26.3 µM | [17] > 41.5 µM | [18] > 100 µM | [19] 98.9 µM | [20] > 100 µM | [21] > 100 µM | [22] > 100 µM | [23] > 81.8 µM | [24] > 100 µM | [25] 98.4 µM | [26] > 70.1 µM | [27] > 100 µM | [59] 10.7 µM | [28] 98.2 µM | [29] 96.8 µM | [30] > 90.4 µM | [31] > 100 µM | [32] > 100 µM | [33] 49 µM | [34] > 54.5 µM | [35] > 64.7 µM | [36] > 62.1 µM | [37] 24 µM | [38] > 100 µM | [39] 69.5 µM | [40] > 100 µM | [41] > 100 µM | [42] > 100 µM | [43] > 100 µM | [44] > 100 µM | [45] > 49.8 µM | [46] > 100 µM | [47] > 55.5 µM | [48] > 100 µM | [49] 5.77 µM | [50] > 100 µM | [51] > 100 µM | [52] > 76.4 µM | [53] > 65 µM | [54] > 44.2 µM | [55] > 100 µM | [56] > 100 µM | [57] > 53.5 µM
> 64.7 µM: [6]
